Assay results as given in paper PMC6297231 (Nature Communications, 2018).
Like-named read-outs stand apart in the source and are kept apart here.

Legend:
Pfeiffer = assay: Cell viability assay; format: cell-based; conditions: Homo sapiens, 24 h; Pfeiffer (NHL); read-out: AZD5991 24h GI50
Experimental: (§1) Cells were plated at 3000 cells/well in 384-well white plates in corresponding cell growth media. […] Caspase-3/7 activation was subsequently determined using a Caspase-Glo 3/7 Reagent (Promega) and viability was assayed using the CellTiter-Glo Reagent (Promega) as described in manufacturer’s instructions. Dose–response curves for caspase-3/7 activation and viability were plotted and analyzed (including EC50 and GI50 determination) using GraphPad Prism.

WSUNHL = assay: Cell viability assay; format: cell-based; conditions: Homo sapiens, WSU-NHL, 24 h, read-out: AZD5991 24h GI50
Experimental: as §1

5637 = assay: Cell viability assay; format: cell-based; conditions: 24 h; 5637 (Urology); read-out: AZD5991 24h GI50
Experimental: as §1

H1395 = assay: Cell viability assay; format: cell-based; conditions: Homo sapiens, NCI-H1395, 24 h; H1395 (Lung); read-out: AZD5991 24h GI50
Experimental: as §1

MEWO = assay: Cell viability assay; format: cell-based; conditions: Homo sapiens, 24 h; MEWO (Skin); read-out: AZD5991 24h GI50
Experimental: as §1

OVCAR3 = assay: Cell viability assay; format: cell-based; conditions: Homo sapiens, OVCAR-3, 24 h; OVCAR3 (Others); read-out: AZD5991 24h GI50
Experimental: as §1

MOLP8 = assay: Caspase-3/7 activation assay; format: cell-based; conditions: Homo sapiens
Experimental: as §1

[1] = system: NCI-H23 cells with enhanced expression of Bcl-xL; assay: Cell death in NCI-H23 with doxycycline-inducible Bcl-xL
Excerpt: The lentiviral plasmid pTRIPZ-FLAG-BCL-XL was used for generation of NCI-H23 cells stably expressing doxycyline-inducible Bcl-xL. To produce viruses, the construct of interest was co-transfected into HEK293T cells with a plasmid encoding the packaging viruses (pPACKH1 Lentivector Packaging Kit, cat#LV500A1 SystemBioscience) using Lipofectamine transfection reagent (ThermoFisher Scientific). The lentiviruses were harvested, filtered, and used to infect target cells following standard procedures. Transduced cells were then subject to puromycin selection for 3 weeks before evaluation in apoptosis and cell proliferation assays.
(b) NCI-H23 cells stably expressing doxycycline-inducible Bcl-xL were treated with
determined using CellTiter Glo and GraphPad Prism for data analysis. Data shown is the average of 2 experiments.

NB4 = assay: Cell viability assay; format: cell-based; conditions: Homo sapiens, NB-4, 24 h; NB4 (AML); read-out: AZD5991 24h GI50
Experimental: as §1

OCILY3 = assay: Cell viability assay; format: cell-based; conditions: Homo sapiens, OCI-Ly3, 24 h; OCILY3 (NHL); read-out: AZD5991 24h GI50
Experimental: as §1

JJN3 = assay: Cell viability assay; format: cell-based; conditions: Homo sapiens, JJN-3, 24 h; JJN3 (MM); read-out: AZD5991 24h GI50
Experimental: as §1

Will2 = assay: Cell viability assay; format: cell-based; conditions: 24 h; Will2 (NHL); read-out: AZD5991 24h GI50
Experimental: as §1

Namalwa = assay: Cell viability assay; format: cell-based; conditions: 24 h; Namalwa (NHL); read-out: AZD5991 24h GI50
Experimental: as §1

MDAMB231 = assay: Cell viability assay; format: cell-based; conditions: Homo sapiens, MDA-MB-231, 24 h; MDAMB231 (Breast); read-out: AZD5991 24h GI50
Experimental: as §1

Karpas620 = assay: Cell viability assay; format: cell-based; conditions: Karpas-620, 24 h; Karpas620 (MM); read-out: AZD5991 24h GI50
Experimental: as §1

THP-1 = assay: Cell viability assay; format: cell-based; conditions: Homo sapiens, 24 h; THP-1 (AML); read-out: AZD5991 24h GI50
Experimental: as §1

ME1 = assay: Cell viability assay; format: cell-based; conditions: ME-1, 24 h; ME1 (AML); read-out: AZD5991 24h GI50
Experimental: as §1

Sudhl4 = assay: Cell viability assay; format: cell-based; conditions: Homo sapiens, SU-DHL-4, 24 h; Sudhl4 (NHL); read-out: AZD5991 24h GI50
Experimental: as §1

BT20 = assay: Cell viability assay; format: cell-based; conditions: Homo sapiens, BT-20, 24 h; BT20 (Breast); read-out: AZD5991 24h GI50
Experimental: as §1

OV90 = assay: Cell viability assay; format: cell-based; conditions: Homo sapiens, OV-90, 24 h; OV90 (Others); read-out: AZD5991 24h GI50
Experimental: as §1

HCC1187 = assay: Cell viability assay; format: cell-based; conditions: Homo sapiens, 24 h; HCC1187 (Breast); read-out: AZD5991 24h GI50
Experimental: as §1

SNU16 = assay: Cell viability assay; format: cell-based; conditions: Homo sapiens, SNU-16, 24 h; SNU16 (GI); read-out: AZD5991 24h GI50
Experimental: as §1

MV4-11 tumors = assay: MV4-11 rat subcutaneous xenograft; format: in vivo
Experimental: Female C.B.-17 SCID mice and female nude rats were purchased from Charles River Laboratories. […]. All xenograft studies were conducted at our Association for the Assessment and Accreditation of Laboratory Animal Care accredited facility in Waltham, MA in accordance with ethical regulations described in the guidelines established by the internal Institutional Animal Care and Use Committee. […]. In mice, drugs were dosed intravenously in a volume of 5 mL kg^-1 except for venetoclax that was dosed orally in a volume of 10 mL kg^-1. […]. Ten million MV4-11 cells were injected subcutaneously in the right flank of rats in a volume of 0.1 mL. Tumor volumes (measured by caliper), animal body weight, and tumor condition were recorded twice weekly for the duration of the study. The tumor volume was calculated using the formula: length (mm) × width (mm)^2/0.52. For efficacy studies, growth inhibition from the start of treatment was assessed by comparison of the differences in tumor volume between control and treated groups. Statistical significance was evaluated using non-parametric, unpaired, two-tailed t-test. […] For pharmacokinetic analysis, plasma samples were precipitated and diluted with acetonitrile containing internal standard and analyzed by LC–MS/MS versus a calibration curve of known concentrations.

[2] = system: Eμ-Myc lymphoma cells, control; assay: cells; conditions: Mus musculus, 24 h, read-out: apoptosis induction EC50 control
Excerpt: The retroviral plasmids to express human Bcl-2 family members in murine Eμ-Myc lymphoma cells are MSCV-hMCL-1-GFP, MSCV-hBCL-2-GFP, MSCV-hBCL-XL-GFP, MSCV-hBFL-1/A1-GFP, and MSCV-hBCL-w-GFP. To produce viruses, constructs of interest were co-transfected into HEK293T cells with the plasmid encoding the packaging viruses (p-CL-AMPHO provided by Phillip Darcy from Peter MacCallum Cancer Center, Melbourne, Australia) using standard calcium phosphate transient transfection technique. The retroviruses were harvested, filtered and used to infect target cells following standard procedures.
Samples were then centrifuged, washed twice with PBS and analyzed by flow cytometry in a BD LSRFortessa. FACSDiva software was used for data collection and FlowJo software for data analysis.

KG1 = assay: Cell viability assay; format: cell-based; conditions: Homo sapiens, KG-1, 24 h; KG1 (AML); read-out: AZD5991 24h GI50
Experimental: as §1

## Cc1c2c(nn1C)CSCc1cc(n(C)n1)CSc1cc(c3ccccc3c1)OCCCc1c(C(=O)O)n(C)c3c-2c(Cl)ccc13 (atropisomer, axis not shown; (Ra)) [(Ra)-7]
Pfeiffer
  GI50: 3370 nM
WSUNHL
  GI50: 221 nM
5637
  GI50: 28000 nM
H1395
  GI50: 12000 nM
MEWO
  GI50: 7680 nM
OVCAR3
  GI50: > 30000 nM
MOLP8; MOLP-8, 6 h, read-out: AZD5991 6h EC50, MOLP8 (MM), caspase 3/7 activation
  EC50: 57 nM
MOLP8; MOLP-8, MOLP-8 cells, 0% serum, read-out: caspase-inducing activity EC50
  EC50: 1 nM
MOLP8; MOLP-8, MOLP-8 cells, 2% serum, read-out: caspase-inducing activity EC50
  EC50: 8 nM
MOLP8; MOLP-8, caspase activation, Mcl-1-dependent cell line, read-out: MOLP-8, EC50
  EC50: 33 nM
MOLP8; MOLP-8, mean of log transformed data, read-out: MOLP-8 caspase pEC50 (converted)
  EC50: 33.1 nM
[1]
  induced cell death: resistance
NB4
  GI50: 292 nM
OCILY3
  GI50: 6190 nM
JJN3
  GI50: 255 nM
Will2
  GI50: 43 nM
Namalwa
  GI50: 39 nM
MDAMB231
  GI50: > 30000 nM
Karpas620
  GI50: 87 nM
THP-1
  GI50: 76 nM
ME1
  GI50: 220 nM
Sudhl4
  GI50: 127 nM
BT20
  GI50: 4630 nM
OV90
  GI50: 22100 nM
HCC1187
  GI50: 233 nM
SNU16
  GI50: 139 nM
MV4-11 tumors; 30 mg kg^−1 i.v.
  tolerability, body weight: no significant body weight loss
MV4-11 tumors; single i.v. dose 30 mg kg^−1
  antitumor response: TR observed
[2]
  EC50: 1070 nM
KG1
  GI50: 291 nM
